Each structure is given as a SMILES string. pIC50: −log10 of the molar value. Some results are limits rather than exact numbers.

In general, pIC50 refers to the IC50 on a negative log10 scale, so that one unit is a factor of ten.

For the experiment, the target named is Mitogen-activated protein kinase 9 (Homo sapiens, UniProt P45984). The experiment in a line: Inhibition of His6-tagged JNK2 (unknown origin) assessed as reduction in c-Jun phosphorylation using GST-c-Jun (1 to 79 residues) and [gamma32P]ATP incubated for 1 hr by scintillation counting assay.
Chain of Mitogen-activated protein kinase 9 (P45984 whole entry, the tested form may be a part): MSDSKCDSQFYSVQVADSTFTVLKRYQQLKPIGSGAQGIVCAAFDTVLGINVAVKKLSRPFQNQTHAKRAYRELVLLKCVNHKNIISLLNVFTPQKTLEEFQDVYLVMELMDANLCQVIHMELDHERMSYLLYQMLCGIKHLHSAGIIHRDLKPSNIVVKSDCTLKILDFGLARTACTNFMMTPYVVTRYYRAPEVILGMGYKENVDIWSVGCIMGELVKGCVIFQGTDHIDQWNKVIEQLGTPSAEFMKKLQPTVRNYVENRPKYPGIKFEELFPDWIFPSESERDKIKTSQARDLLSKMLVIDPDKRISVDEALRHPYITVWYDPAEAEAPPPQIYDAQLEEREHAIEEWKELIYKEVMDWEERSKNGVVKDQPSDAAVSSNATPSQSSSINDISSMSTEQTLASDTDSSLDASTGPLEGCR
Regarding `O=C(Nc1cccc(-c2n[nH]c3ccc(-c4nc[nH]n4)cc23)c1)c1ccco1`, the negative-log IC50 (pIC50) was 5.00 to 6.30.
In the case of `CS(=O)(=O)c1ccc(-c2n[nH]c3ccc(-c4ncn[nH]4)cc23)cc1`, the negative logarithm of the IC50 (pIC50) was 5.00 to 6.00.
For `O=C(Cc1ccccc1)Nc1cccc(-c2n[nH]c3ccc(-c4nnc[nH]4)cc23)c1`, the pIC50 was 5.00 to 6.30.
Turning to `COC(=O)CCc1nnc(-c2ccc3[nH]nc(-c4ccc(F)cc4)c3c2)[nH]1`, the negative logarithm of the IC50 (pIC50) was 5.00 to 6.00.
On to `c1nc(-c2ccc3[nH]nc(-c4ccc5c(c4)OCO5)c3c2)n[nH]1`, for which the negative-log IC50 (pIC50) was 5.00 to 6.00.
Regarding `CC(C)c1cccc(-c2n[nH]c3ccc(-c4nc[nH]n4)cc23)c1`, the pIC50 is 5.00 to 6.00.
To `CN(C)CCOc1ccc(-c2n[nH]c3ccc(C(N)=O)cc23)cc1` belongs 5.00 to 6.00; to `Fc1ccc(-c2n[nH]c3ccc(-c4nc(-c5ccncc5)n[nH]4)cc23)cc1`, 5.00 to 6.00; to `Nc1cccc(-c2n[nH]c3ccc(-c4nnn[nH]4)cc23)c1`, 5.00 to 6.30.
As to `CCOC(=O)CCCc1nnc(-c2ccc3[nH]nc(-c4ccc(F)cc4)c3c2)[nH]1`, the negative logarithm of the IC50 (pIC50) is 5.00 to 6.00.
For the compound `COc1ccc(-c2n[nH]c3ccc(-c4nnn[nH]4)cc23)cc1OC`, the negative logarithm of the IC50 (pIC50) is 5.00 to 6.30.
Consider `CC(C)COc1ccc(-c2n[nH]c3ccc(-c4nnn[nH]4)cc23)cc1`, for which the pIC50 is 5.00 to 6.00.
For the compound `COc1ccc(-c2n[nH]c3ccc(C(N)=O)cc23)cc1OC`, the pIC50 was 5.00 to 6.00.
As for `FC(F)(F)c1ccc(-c2n[nH]c3ccc(-c4ncn[nH]4)cc23)cc1`, the negative logarithm of the IC50 (pIC50) is 5.00 to 6.00.
To `NC(=O)c1ccc2[nH]nc(-c3cc4ccccc4o3)c2c1` belongs 5.00 to 6.00.
For `Clc1ccc(-c2n[nH]c3ccc(-c4nnn[nH]4)cc23)cc1`, the pIC50 was 5.00 to 6.30.
The result for `Nc1ccc(-c2n[nH]c3ccc(-c4nc[nH]n4)cc23)cc1` reads 5.00 to 6.00; that for `NC(=O)c1ccc2[nH]nc(-c3cc4ccccc4s3)c2c1`, 5.00 to 6.00; that for `COCC(=O)Nc1cccc(-c2n[nH]c3ccc(-c4nnc[nH]4)cc23)c1`, 5.00 to 6.30.
`c1ccc2cc(-c3n[nH]c4ccc(-c5ncn[nH]5)cc34)ccc2c1`: the negative logarithm of the IC50 (pIC50) was 5.00 to 6.00.
Take `c1cc(OCCN2CCOCC2)cc(-c2n[nH]c3ccc(-c4nnn[nH]4)cc23)c1`: the negative logarithm of the IC50 (pIC50) was 5.00 to 6.30.
In the case of `Oc1ccc(-c2nnc(-c3ccc4[nH]nc(-c5ccc(F)cc5)c4c3)[nH]2)cc1`, the negative logarithm of the IC50 (pIC50) was 5.00 to 6.00.
With `Nc1cccc(-c2n[nH]c3ccc(-c4nnc[nH]4)cc23)c1`, the pIC50 was 5.00 to 6.00.
For the compound `CC(C)c1ccc(-c2n[nH]c3ccc(-c4nnn[nH]4)cc23)cc1`, the negative-log IC50 (pIC50) is 5.00 to 6.00.
In the case of `Fc1ccc(-c2n[nH]c3ccc(-c4nnc(Cc5ccccc5)[nH]4)cc23)cc1`, the pIC50 was 5.00 to 6.00.
As to `CN(C)CCOc1ccc(-c2n[nH]c3ccc(-c4ncn[nH]4)cc23)cc1`, the pIC50 was 5.00 to 6.00.
Consider `c1ccc2oc(-c3n[nH]c4ccc(-c5nnn[nH]5)cc34)cc2c1`, for which the negative logarithm of the IC50 (pIC50) is 5.00 to 6.30.
`Nc1ccc(-c2nnc(-c3ccc4[nH]nc(-c5ccc(F)cc5)c4c3)[nH]2)cc1`: the pIC50 is 5.00 to 6.00.
Consider `C(=C\c1n[nH]c2ccc(-c3nc[nH]n3)cc12)/c1ccccc1`, for which the negative-log IC50 (pIC50) was 5.00 to 6.00.
With `c1ccc2sc(-c3n[nH]c4ccc(-c5nn[nH]n5)cc34)cc2c1`, the pIC50 is 5.00 to 6.30.
To `O=C(O)Cc1nnc(-c2ccc3[nH]nc(-c4ccc(F)cc4)c3c2)[nH]1` belongs 5.00 to 6.00.
`NC(=O)c1ccc2[nH]nc(-c3ccc4ccccc4c3)c2c1`: the negative logarithm of the IC50 (pIC50) was 5.00 to 6.00.
For `CC(=O)c1ccc2[nH]nc(-c3ccc(F)cc3)c2c1`, the pIC50 is 5.00 to 6.00.
For the compound `O=C(O)CCc1ccc2[nH]nc(-c3ccc(F)cc3)c2c1`, the pIC50 was at least 5.00.
Take `CC(O)c1nnc(-c2ccc3[nH]nc(-c4ccc(F)cc4)c3c2)[nH]1` (configuration not stated): the pIC50 was 5.00 to 6.30.
For the compound `NC(=O)c1ccc2[nH]nc(-c3ccc(O)cc3)c2c1`, the negative-log IC50 (pIC50) was 5.00 to 6.00.
On to `c1nc(-c2ccc3[nH]nc(-c4ccsc4)c3c2)n[nH]1`, for which the negative-log IC50 (pIC50) is 5.00 to 6.00.
In the case of `O=[N+]([O-])c1cccc(/C=C/c2ccc3[nH]nc(-c4ccc(F)cc4)c3c2)c1`, the pIC50 was at least 5.00.
As to `Oc1ccccc1-c1n[nH]c2ccc(-c3nnn[nH]3)cc12`, the pIC50 is 5.00 to 6.00.
`C[S+]([O-])c1ccc(-c2n[nH]c3ccc(-c4ncn[nH]4)cc23)cc1` (configuration not stated): the negative logarithm of the IC50 (pIC50) is 5.00 to 6.00.
As for `c1ccc2cc(-c3n[nH]c4ccc(-c5nnn[nH]5)cc34)ccc2c1`, the pIC50 was 5.00 to 6.30.
As to `COc1ccccc1-c1n[nH]c2ccc(-c3nnn[nH]3)cc12`, the pIC50 was 5.00 to 6.00.
The result for `NC(=O)c1ccc2[nH]nc(-c3ccoc3)c2c1` reads 5.00 to 6.00.
Take `COc1ccc(-c2n[nH]c3ccc(-c4nnn[nH]4)cc23)cc1`: the negative-log IC50 (pIC50) was 5.00 to 6.30.
With `c1csc(-c2n[nH]c3ccc(-c4nnn[nH]4)cc23)c1`, the pIC50 was 5.00 to 6.30.
Regarding `C(#Cc1n[nH]c2ccc(-c3nnc[nH]3)cc12)c1ccccc1`, the pIC50 is 5.00 to 6.00.
Take `O=C(Nc1cccc(-c2n[nH]c3ccc(-c4nc[nH]n4)cc23)c1)c1cccnc1`: the negative logarithm of the IC50 (pIC50) is 5.00 to 6.30.
Consider `CN(C)c1ccc(-c2n[nH]c3ccc(C(N)=O)cc23)cc1`, for which the pIC50 is 5.00 to 6.00.
In the case of `C(#Cc1n[nH]c2ccc(-c3nnn[nH]3)cc12)c1ccccc1`, the pIC50 was 5.00 to 6.00.
For `Oc1cccc(-c2n[nH]c3ccc(-c4nnn[nH]4)cc23)c1`, the pIC50 was 5.00 to 6.30.
On to `COc1cccc(-c2n[nH]c3ccc(-c4nnn[nH]4)cc23)c1`, for which the negative-log IC50 (pIC50) is 5.00 to 6.30.
To `c1ccc2oc(-c3n[nH]c4ccc(-c5nc[nH]n5)cc34)cc2c1` belongs 5.00 to 6.30; to `c1cc(-c2n[nH]c3ccc(-c4nnn[nH]4)cc23)ccn1`, 5.00 to 6.30; to `Fc1ccc(-c2n[nH]c3ccc(/C=C/c4ccncc4)cc23)cc1`, at least 5.00.
Regarding `CC(C)c1cccc(-c2n[nH]c3ccc(C(N)=O)cc23)c1`, the negative-log IC50 (pIC50) was at least 5.00.
As for `CCOC(=O)Cc1n[nH]c(-c2ccc3[nH]nc(-c4ccc(F)cc4)c3c2)n1`, the pIC50 is 5.00 to 6.00.
`Fc1ccc(-c2n[nH]c3ccc(CCc4ccccc4)cc23)cc1`: the pIC50 is at least 5.00.
Turning to `COCC(=O)Nc1cccc(-c2n[nH]c3ccc(-c4nn[nH]n4)cc23)c1`, the negative logarithm of the IC50 (pIC50) is 5.00 to 6.30.
For the compound `COCCC(=O)Nc1cccc(-c2n[nH]c3ccc(-c4nn[nH]n4)cc23)c1`, the negative-log IC50 (pIC50) was 5.00 to 6.30.
As for `CN(C)c1ccc(-c2n[nH]c3ccc(-c4ncn[nH]4)cc23)cc1`, the negative logarithm of the IC50 (pIC50) was 5.00 to 6.00.
As for `OC(Cc1ccccc1)c1ccc2[nH]nc(-c3ccc(F)cc3)c2c1` (configuration not stated), the pIC50 is 5.00 to 6.00.
`Clc1ccc(/C=C/c2n[nH]c3ccc(-c4nc[nH]n4)cc23)cc1`: the pIC50 is 5.00 to 6.00.
For `O=C(Cc1ccccc1)c1ccc2[nH]nc(-c3ccc(F)cc3)c2c1`, the pIC50 is at least 5.00.
On to `c1ccc(CCc2n[nH]c3ccc(-c4nnn[nH]4)cc23)cc1`, for which the pIC50 was 5.00 to 6.00.
Consider `CC(=O)Nc1cccc(-c2n[nH]c3ccc(-c4ncn[nH]4)cc23)c1`, for which the pIC50 was 5.00 to 6.00.
As for `Oc1ccc(-c2n[nH]c3ccc(-c4ncn[nH]4)cc23)cc1`, the negative logarithm of the IC50 (pIC50) was 5.00 to 6.00.
The result for `c1coc(-c2n[nH]c3ccc(-c4nnn[nH]4)cc23)c1` reads 5.00 to 6.30; that for `Cc1ccc(-c2n[nH]c3ccc(-c4nnc[nH]4)cc23)cc1`, 5.00 to 6.00.
In the case of `CCCc1n[nH]c(-c2ccc3[nH]nc(-c4ccc(F)cc4)c3c2)n1`, the pIC50 was 5.00 to 6.00.
With `O=C(O)c1ccc2[nH]nc(-c3cc4ccccc4s3)c2c1`, the pIC50 is 5.00 to 6.00.
For the compound `O=C(CCN1CCCCC1)Nc1cccc(-c2n[nH]c3ccc(-c4nn[nH]n4)cc23)c1`, the pIC50 was 5.00 to 6.30.
The result for `O=C(O)c1ccc(CCc2ccc3[nH]nc(-c4ccc(F)cc4)c3c2)cc1` reads at least 5.00; that for `NC(=O)c1ccc2[nH]nc(C#Cc3ccccc3)c2c1`, 5.00 to 6.00; that for `Clc1ccc(-c2n[nH]c3ccc(-c4nc[nH]n4)cc23)cc1Cl`, 5.00 to 6.00.
Turning to `CC(Oc1ccccc1)C(=O)Nc1cccc(-c2n[nH]c3ccc(-c4nn[nH]n4)cc23)c1` (configuration not stated), the pIC50 is 5.00 to 6.30.
For `O=C(Nc1cccc(-c2n[nH]c3ccc(-c4nn[nH]n4)cc23)c1)c1ccco1`, the negative logarithm of the IC50 (pIC50) was 5.00 to 6.30.
As for `CS(=O)(=O)Nc1cccc(-c2n[nH]c3ccc(-c4nnc[nH]4)cc23)c1`, the pIC50 was 5.00 to 6.00.
For `Fc1ccc(-c2n[nH]c3ccc(/C=C/c4ccccn4)cc23)cc1`, the pIC50 was at least 5.00.
As for `Fc1ccc(-c2n[nH]c3ccc(-c4nc(-c5ccccc5)n[nH]4)cc23)cc1`, the pIC50 is 5.00 to 6.00.
For the compound `COC(=O)c1ccc2[nH]nc(-c3cc4ccccc4s3)c2c1`, the pIC50 is at least 5.00.
Turning to `Fc1ccc(-c2n[nH]c3ccc(CCc4ccccn4)cc23)cc1`, the pIC50 was at least 5.00.
`Fc1ccc(-c2n[nH]c3ccc(-c4nnc(-c5cccnc5)[nH]4)cc23)cc1`: the negative logarithm of the IC50 (pIC50) was 5.00 to 6.00.
As for `COc1ccc(-c2n[nH]c3ccc(-c4ncn[nH]4)cc23)cc1`, the pIC50 was 5.00 to 6.00.
For the compound `Cc1nnc(-c2ccc3[nH]nc(-c4ccc(F)cc4)c3c2)o1`, the negative logarithm of the IC50 (pIC50) is 5.00 to 6.00.
In the case of `c1n[nH]c(-c2ccc3[nH]nc(-c4ccoc4)c3c2)n1`, the negative logarithm of the IC50 (pIC50) was 5.00 to 6.00.
Turning to `C(=C\c1n[nH]c2ccc(-c3nnn[nH]3)cc12)/c1ccccc1`, the negative-log IC50 (pIC50) was 5.00 to 6.30.
To `c1cc2[nH]nc(-c3ccc4c(c3)OCO4)c2cc1-c1nnn[nH]1` belongs 5.00 to 6.30.
In the case of `c1cc(-c2n[nH]c3ccc(-c4nnn[nH]4)cc23)ccc1OCCN1CCOCC1`, the pIC50 is 5.00 to 6.30.
Consider `c1cncc(-c2n[nH]c3ccc(-c4nnn[nH]4)cc23)c1`, for which the pIC50 is at least 5.00.
Turning to `O=C(O)/C=C/c1ccc2[nH]nc(-c3ccc(F)cc3)c2c1`, the pIC50 was 5.00 to 6.00.
The result for `CCOC(=O)CCc1ccc2[nH]nc(-c3ccc(F)cc3)c2c1` reads at least 5.00; that for `Clc1cccc(-c2n[nH]c3ccc(-c4ncn[nH]4)cc23)c1`, 5.00 to 6.00; that for `COc1ccc(/C=C/c2n[nH]c3ccc(-c4nc[nH]n4)cc23)cc1`, 5.00 to 6.00.
As to `Fc1ccc(-c2n[nH]c3ccc(-c4nc(-c5ccco5)n[nH]4)cc23)cc1`, the pIC50 is 5.00 to 6.00.
To `Cc1ccc(/C=C/c2n[nH]c3ccc(-c4nnc[nH]4)cc23)cc1` belongs 5.00 to 6.00; to `c1cc(-c2n[nH]c3ccc(-c4nnn[nH]4)cc23)cs1`, 5.00 to 6.30.
With `COc1ccc(-c2n[nH]c3ccc(C(N)=O)cc23)cc1`, the pIC50 was 5.00 to 6.00.

Source of the values: ChEMBL document CHEMBL3882725, “Indazole derivatives as JNK inhibitors and compositions and methods related thereto” (2002).
